From ChEMBL document CHEMBL5512649, “Drug development and potential targets for Cushing's syndrome” (Eur J Med Chem, 2024)

Key:
[1] = target: Nuclear factor NF-kappa-B complex (Homo sapiens, UniProt P19838+Q00653+Q04206); test: Inhibition of NF-kappaB (unknown origin); assay type: protein-complex assay
[2] = target: Cyclin-dependent kinase 1 (Homo sapiens, UniProt P06493); test: Inhibition of CDK1 (unknown origin)
[3] = target: Cyclin-dependent kinase 6 (Homo sapiens, UniProt Q00534); test: Inhibition of CDK6 (unknown origin)
Sequence of Cyclin-dependent kinase 6 (Q00534 whole entry): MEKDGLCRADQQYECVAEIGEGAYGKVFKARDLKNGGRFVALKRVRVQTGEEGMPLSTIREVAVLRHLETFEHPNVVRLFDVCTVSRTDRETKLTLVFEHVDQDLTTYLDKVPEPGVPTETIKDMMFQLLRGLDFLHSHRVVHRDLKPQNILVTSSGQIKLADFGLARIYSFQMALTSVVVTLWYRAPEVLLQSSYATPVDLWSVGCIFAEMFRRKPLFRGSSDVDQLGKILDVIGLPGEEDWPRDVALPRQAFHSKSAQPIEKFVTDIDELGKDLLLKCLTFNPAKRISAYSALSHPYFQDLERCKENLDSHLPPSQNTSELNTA

[4] = target: Cyclin-dependent kinase 9 (Homo sapiens, UniProt P50750); test: Inhibition of CDK9 (unknown origin)
[5] = target: Cyclin-dependent kinase 4 (Homo sapiens, UniProt P11802); test: Inhibition of CDK4 (unknown origin)
[6] = target: DNA (cytosine-5)-methyltransferase 1 (Homo sapiens, UniProt P26358); test: Inhibition of DNMT1 (unknown origin)
Sequence of DNA (cytosine-5)-methyltransferase 1 (P26358 whole entry): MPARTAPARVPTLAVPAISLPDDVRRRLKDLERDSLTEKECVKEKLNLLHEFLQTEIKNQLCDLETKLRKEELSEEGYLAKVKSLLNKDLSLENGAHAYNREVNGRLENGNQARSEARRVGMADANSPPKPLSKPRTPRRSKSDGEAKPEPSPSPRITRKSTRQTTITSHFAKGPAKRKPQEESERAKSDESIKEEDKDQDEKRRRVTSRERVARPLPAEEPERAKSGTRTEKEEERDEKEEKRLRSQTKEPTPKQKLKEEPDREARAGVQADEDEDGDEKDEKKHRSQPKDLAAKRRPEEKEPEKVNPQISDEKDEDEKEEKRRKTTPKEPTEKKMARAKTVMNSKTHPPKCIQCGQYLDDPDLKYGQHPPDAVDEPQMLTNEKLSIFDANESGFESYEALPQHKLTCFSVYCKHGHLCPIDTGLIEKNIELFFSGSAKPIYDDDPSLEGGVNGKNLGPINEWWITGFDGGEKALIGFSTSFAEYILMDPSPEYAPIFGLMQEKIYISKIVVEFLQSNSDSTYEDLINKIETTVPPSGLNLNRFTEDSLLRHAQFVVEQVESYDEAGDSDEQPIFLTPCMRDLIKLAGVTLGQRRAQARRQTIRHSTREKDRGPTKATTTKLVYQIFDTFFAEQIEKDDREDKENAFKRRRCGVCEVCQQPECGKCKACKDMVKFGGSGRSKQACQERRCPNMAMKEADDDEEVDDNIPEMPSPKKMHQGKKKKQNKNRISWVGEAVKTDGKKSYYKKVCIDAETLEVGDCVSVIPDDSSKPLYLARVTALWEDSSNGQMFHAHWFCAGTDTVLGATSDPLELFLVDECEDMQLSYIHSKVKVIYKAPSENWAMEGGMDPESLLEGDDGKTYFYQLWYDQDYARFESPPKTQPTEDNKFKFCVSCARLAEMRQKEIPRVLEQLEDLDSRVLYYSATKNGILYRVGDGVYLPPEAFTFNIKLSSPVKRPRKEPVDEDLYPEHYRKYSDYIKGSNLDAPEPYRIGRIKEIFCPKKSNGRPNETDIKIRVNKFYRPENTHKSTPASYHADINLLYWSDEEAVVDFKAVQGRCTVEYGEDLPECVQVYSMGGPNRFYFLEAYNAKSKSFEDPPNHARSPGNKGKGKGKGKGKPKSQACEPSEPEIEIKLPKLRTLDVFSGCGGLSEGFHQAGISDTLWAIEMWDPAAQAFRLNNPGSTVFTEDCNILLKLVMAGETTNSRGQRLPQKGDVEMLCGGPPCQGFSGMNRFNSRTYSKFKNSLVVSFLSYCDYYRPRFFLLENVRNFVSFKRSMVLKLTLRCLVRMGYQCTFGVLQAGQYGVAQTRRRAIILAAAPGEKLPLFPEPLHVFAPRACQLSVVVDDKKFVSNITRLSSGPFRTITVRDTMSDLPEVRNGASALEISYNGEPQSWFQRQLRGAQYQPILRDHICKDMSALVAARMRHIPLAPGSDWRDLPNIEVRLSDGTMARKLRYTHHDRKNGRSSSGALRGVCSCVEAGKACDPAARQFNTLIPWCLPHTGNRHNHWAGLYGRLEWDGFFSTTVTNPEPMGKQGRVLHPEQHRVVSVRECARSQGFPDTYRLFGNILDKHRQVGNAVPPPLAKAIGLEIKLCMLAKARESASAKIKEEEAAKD

[7] = target: T1, Histone acetyltransferase type B catalytic subunit (Homo sapiens, UniProt O14929); test: Inhibition of HAT1 (unknown origin)
T1 sequence (O14929 whole entry): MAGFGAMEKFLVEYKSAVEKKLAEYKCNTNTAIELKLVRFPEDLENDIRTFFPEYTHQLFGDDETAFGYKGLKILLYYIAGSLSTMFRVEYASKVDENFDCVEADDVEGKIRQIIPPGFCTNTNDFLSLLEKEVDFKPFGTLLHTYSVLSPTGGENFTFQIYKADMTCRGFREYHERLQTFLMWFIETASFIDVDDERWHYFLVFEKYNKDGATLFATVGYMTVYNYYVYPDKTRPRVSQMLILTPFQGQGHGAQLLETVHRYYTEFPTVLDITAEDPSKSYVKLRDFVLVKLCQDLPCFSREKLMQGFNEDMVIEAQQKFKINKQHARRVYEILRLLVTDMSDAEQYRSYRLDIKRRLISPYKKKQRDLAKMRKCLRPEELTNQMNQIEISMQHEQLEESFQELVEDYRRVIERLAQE

[8] = target: ATP-dependent translocase ABCB1 (Homo sapiens, UniProt P08183); test: Inhibition of MDR1 (unknown origin)
Sequence of ATP-dependent translocase ABCB1 (P08183 whole entry): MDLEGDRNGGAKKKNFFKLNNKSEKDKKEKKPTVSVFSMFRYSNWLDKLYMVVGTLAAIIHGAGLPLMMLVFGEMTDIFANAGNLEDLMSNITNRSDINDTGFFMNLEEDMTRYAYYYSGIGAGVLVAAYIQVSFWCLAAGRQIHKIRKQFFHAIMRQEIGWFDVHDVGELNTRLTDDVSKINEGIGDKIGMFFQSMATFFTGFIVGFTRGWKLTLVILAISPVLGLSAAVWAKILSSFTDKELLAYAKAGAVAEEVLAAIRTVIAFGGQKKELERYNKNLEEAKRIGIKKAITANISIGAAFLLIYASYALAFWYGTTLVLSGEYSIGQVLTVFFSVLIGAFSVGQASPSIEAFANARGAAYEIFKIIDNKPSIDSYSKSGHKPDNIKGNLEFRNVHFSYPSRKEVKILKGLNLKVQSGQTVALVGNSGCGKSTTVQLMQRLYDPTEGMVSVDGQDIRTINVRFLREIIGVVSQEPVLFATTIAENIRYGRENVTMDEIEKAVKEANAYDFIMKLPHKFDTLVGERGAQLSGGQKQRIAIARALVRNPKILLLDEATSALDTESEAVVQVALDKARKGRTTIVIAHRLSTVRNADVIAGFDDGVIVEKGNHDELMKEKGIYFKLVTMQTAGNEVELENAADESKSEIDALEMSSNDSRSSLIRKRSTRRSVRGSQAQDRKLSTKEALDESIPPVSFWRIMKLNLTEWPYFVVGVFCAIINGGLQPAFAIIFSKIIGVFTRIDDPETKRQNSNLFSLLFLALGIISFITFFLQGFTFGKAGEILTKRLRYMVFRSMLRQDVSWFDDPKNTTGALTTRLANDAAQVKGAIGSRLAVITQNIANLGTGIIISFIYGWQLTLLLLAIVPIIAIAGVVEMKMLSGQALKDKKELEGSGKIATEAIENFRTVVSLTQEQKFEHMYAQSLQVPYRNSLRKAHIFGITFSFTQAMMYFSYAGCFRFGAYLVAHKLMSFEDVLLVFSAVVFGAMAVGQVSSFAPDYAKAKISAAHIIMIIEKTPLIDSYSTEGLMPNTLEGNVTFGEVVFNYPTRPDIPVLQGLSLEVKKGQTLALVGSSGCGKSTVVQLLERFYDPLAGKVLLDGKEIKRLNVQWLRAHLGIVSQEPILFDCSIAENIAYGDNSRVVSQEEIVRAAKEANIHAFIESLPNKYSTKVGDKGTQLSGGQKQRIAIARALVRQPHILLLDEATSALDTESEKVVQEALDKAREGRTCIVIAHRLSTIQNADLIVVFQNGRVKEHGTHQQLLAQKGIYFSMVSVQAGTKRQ

Sequence of Nuclear factor NF-kappa-B complex (P19838 1-433 limits assumed): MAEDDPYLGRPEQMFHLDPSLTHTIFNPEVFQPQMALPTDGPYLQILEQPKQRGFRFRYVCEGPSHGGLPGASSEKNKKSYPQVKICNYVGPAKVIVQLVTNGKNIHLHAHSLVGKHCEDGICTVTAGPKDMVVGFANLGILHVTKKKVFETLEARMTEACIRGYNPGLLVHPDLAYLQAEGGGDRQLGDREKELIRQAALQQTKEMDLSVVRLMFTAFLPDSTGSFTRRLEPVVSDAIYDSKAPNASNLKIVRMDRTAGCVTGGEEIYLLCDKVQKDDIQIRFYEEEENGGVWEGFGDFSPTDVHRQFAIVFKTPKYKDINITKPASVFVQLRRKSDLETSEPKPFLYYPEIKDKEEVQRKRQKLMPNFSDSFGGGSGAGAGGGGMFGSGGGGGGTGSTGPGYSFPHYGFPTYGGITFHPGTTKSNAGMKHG
Sequence of Nuclear factor NF-kappa-B complex (Q00653 1-454 limits assumed): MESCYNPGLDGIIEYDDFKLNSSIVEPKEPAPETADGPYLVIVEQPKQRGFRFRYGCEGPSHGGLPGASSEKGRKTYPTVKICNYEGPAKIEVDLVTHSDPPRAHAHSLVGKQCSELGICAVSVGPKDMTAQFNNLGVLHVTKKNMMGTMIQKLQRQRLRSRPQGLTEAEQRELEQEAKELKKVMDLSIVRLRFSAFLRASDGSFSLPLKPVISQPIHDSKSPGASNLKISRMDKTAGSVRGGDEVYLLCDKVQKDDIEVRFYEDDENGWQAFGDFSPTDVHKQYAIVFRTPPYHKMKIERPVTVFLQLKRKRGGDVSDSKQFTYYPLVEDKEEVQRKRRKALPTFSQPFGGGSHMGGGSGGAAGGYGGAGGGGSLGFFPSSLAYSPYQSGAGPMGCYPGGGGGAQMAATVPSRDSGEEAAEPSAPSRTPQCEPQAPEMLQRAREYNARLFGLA
Sequence of Nuclear factor NF-kappa-B complex (Q04206 whole entry): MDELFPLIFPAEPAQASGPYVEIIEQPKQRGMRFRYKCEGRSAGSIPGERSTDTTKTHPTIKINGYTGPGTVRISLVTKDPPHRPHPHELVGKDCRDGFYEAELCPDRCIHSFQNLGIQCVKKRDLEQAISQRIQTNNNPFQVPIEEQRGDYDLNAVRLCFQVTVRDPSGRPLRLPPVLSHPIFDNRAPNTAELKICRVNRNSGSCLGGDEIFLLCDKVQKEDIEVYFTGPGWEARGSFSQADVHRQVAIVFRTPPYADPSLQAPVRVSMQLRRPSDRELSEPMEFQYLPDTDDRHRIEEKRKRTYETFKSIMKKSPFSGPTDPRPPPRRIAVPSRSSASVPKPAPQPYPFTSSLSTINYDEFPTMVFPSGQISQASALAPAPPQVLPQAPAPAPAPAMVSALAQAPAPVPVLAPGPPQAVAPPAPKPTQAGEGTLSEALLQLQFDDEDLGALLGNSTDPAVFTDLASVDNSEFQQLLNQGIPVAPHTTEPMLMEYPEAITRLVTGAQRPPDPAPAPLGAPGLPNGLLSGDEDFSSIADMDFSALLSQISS
Sequence of Cyclin-dependent kinase 1 (P06493 whole entry): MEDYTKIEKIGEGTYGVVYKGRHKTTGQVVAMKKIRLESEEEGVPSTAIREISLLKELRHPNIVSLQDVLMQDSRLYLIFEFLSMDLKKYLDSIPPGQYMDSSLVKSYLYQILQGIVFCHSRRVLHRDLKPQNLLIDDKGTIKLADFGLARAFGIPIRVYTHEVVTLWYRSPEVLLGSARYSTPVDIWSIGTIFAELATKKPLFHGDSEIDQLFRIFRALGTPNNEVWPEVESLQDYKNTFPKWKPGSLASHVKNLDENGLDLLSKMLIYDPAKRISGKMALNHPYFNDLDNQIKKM

CC(C)C[C@H](NC(=O)[C@H](Cc1ccccc1)NC(=O)c1cnccn1)B(O)O [BORTEZOMIB]
IC50 [1]: ≤ 10 nM

O=C(O)c1cc(/N=N/c2ccc(S(=O)(=O)Nc3ccccn3)cc2)ccc1O [SULFASALAZINE]
IC50 [1]: 10000 nM

CNC(=O)c1nn(C)c2c1C(C)(C)Cc1cnc(Nc3ccc(N4CCN(C)CC4)cc3)nc1-2 [MILCICLIB]
IC50 [2]: 45 nM

CC(C)c1c2cc(-c3nc(Nc4ccc(N5CCNCC5)cn4)ncc3F)ccc2nn1C [CULMERCICLIB]
IC50 [3]: 2.4 nM

CN1CC[C@H](c2c(OP(=O)(O)O)cc(O)c3c(=O)cc(-c4ccccc4Cl)oc23)[C@H](O)C1 [TP-1287]
IC50 [4]: 10 nM

C[C@@H]1C[C@H]2[C@@H]3CCC4=CC(=O)C=C[C@]4(C)C3=CC[C@]2(C)[C@@]1(O)C(=O)CO [VAMOROLONE]
IC50 [1]: 65.9 nM

CN1CC[C@@H](c2c(O)cc(O)c3c(=O)cc(-c4ccc(C(F)(F)F)cc4Cl)oc23)[C@@H]1CO [VORUCICLIB]
IC50 [5]: 400 nM

O=C(Oc1ccccc1C(=O)O)c1ccccc1O [SALSALATE]
IC50 [1]: ≤ 2000 nM

CC(C)[C@]12O[C@H]1[C@@H]1O[C@]13[C@]1(O[C@H]1C[C@H]1C4=C(CC[C@@]13C)C(=O)OC4)[C@@H]2O [TRIPTOLIDE]
IC50 [1]: 10 nM

COc1cc(/C=C/C(=O)CC(=O)/C=C/c2ccc(O)c(OC)c2)ccc1O [CURCUMIN]
IC50 [6]: ≤ 1000 nM | IC50 [7]: ≤ 1000 nM | IC50 [8]: ≤ 1000 nM
